From patent US9006181B2 (The Administrators of the Tulane Educational Fund, priority 2004, dated 2015)
Several values for one entry are separate records, joined by “and”; a condition that tells them apart may be missing. Equal values may be shown once. Entries after “also recorded” stand apart in the source; their conditions may differ. Where no end group is shown, it is not given here.

What was measured:
[1] = tested on: TNF-α production by human proximal tubule cells; experiment: LC-induced TNF-α production by renal tubule cells, ELISA; assay type: cell-based
Experimental: TNF-α concentrations were determined by ELISA.
Varying doses of dexamethasone, PACAP38, MAPK kinase inhibitor (U0126), or PDTC were added to renal tubule cell cultures along with 50 μM LC to determine the effects on LC-induced TNF-α production, as measured by ELISA (FIG. 4).

[2] = tested on: NFκB p50 subunit in human proximal tubule cells; experiment: LC-induced activation of NFκB p50 subunit, ELISA; assay type: cell-based; conditions: dexamethasone 10^−7 M, PACAP38 10^−9 M; 50 μM LC, 3 days
Experimental: Human renal tubule cells in vitro were incubated with 50 μM LC for 3 days in the presence or absence of dexamethasone or PACAP38, and assayed by ELISA for activation of NFκB subunits (FIGS. 6 & 7). […] A human Raji cell line (B lymphocyte, Burkitt's lymphoma) was used for positive controls.

[3] = tested on: NCI-H929 human myeloma cell line; experiment: Myeloma cell growth, colorimetric BrdU incorporation; assay type: cell-based
Experimental: A human myeloma cell line (NCI-H929), which produced the lambda (λ) light chains used supra, were grown for 3 days in media containing non-inactivated media, and in the presence or absence of dexamethasone or PACAP38 (FIG. 8). Cell growth was determined by a colorimetric assay that measured the degree of 5-bromo-2-deoxyuridine (BrdU) incorporation by the cells. […] The therapeutic actions of dexamethasone in the treatment of multiple myeloma are attributed to stimulation of apoptosis.

[4] = tested on: IL-6 production by human proximal tubule cells; experiment: LC-induced IL6 production by renal tubule cells, ELISA; assay type: cell-based; conditions: for magnitude of IL6 suppression compared with dexamethasone and SB202190: 10^−9 M PACAP vs 10^−9 M dexamethasone or 10 μM SB202190
Experimental: The overproduction of IL6 by neoplastic cells is strongly associated with the growth of multiple myeloma. Kawano M, et al. Nature. 332: 83 (1988). Varying doses of PACAP38, dexamethasone, or p38 MAPK kinase inhibitor (SB202190) were added to renal tubule cell cultures along with 50 μM LC to determine the effects on LC-induced IL6 production, as measured by ELISA (FIG. 11).

[5] = tested on: SV40-immortalized human renal proximal tubule cell cultures; experiment: Immunoglobulin light chain (LC)-induced damage of human renal tubule cells: morphology and survival
Experimental: SV40-immortalized human renal proximal tubule cell cultures were incubated with immunoglobulin light chains (LC) at 50 μM for 3 days (FIG. 2).

[6] = tested on: ERK1/2 in human proximal tubule cells; experiment: LC-induced activation of ERK1/2, phospho-ERK1/2 ELISA; assay type: cell-based; conditions: dexamethasone 10^−7 M, PACAP38 10^−9 M; 50 μM LC, 3 days
Experimental: The ERK-type MAP kinases (ERK1 and ERK2 or, collectively, ERK1/2) are activated by phosphorylation. Evidence of such activation is visualized by antibody detection techniques, using antibody specific for the phosphorylated forms of ERK1/2. […] ERK1/2 activation was determined by ELISA.

[7] = tested on: p38 MAPK in human proximal tubule cells; experiment: LC-induced p38 MAPK activation, ELISA for phosphorylated p38 MAPK; assay type: cell-based
Text: Cytokine production may depend upon activation (phosphorylation) of p38 MAP kinase (stress-activated protein kinase 2a) isoforms.

[8] = biological target: T1, PAC1-R (type I PACAP receptor) (Homo sapiens, UniProt P41586); conditions: cited from earlier work
T1 sequence (P41586 21-468): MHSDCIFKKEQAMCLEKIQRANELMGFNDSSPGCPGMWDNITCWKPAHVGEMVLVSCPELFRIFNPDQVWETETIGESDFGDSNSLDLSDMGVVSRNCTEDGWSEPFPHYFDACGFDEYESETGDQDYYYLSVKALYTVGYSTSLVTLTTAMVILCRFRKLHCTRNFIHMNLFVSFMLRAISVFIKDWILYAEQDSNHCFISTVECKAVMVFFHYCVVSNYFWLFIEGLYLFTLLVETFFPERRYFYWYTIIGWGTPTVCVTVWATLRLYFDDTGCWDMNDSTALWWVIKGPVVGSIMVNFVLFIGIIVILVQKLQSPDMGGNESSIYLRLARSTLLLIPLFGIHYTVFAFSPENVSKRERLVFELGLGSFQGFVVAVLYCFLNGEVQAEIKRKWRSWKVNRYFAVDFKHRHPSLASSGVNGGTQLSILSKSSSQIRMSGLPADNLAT

## S=C(S)N1CCCC1 [PDTC, pyrrolidine dithiocarbamate, reference compound]
[1]; PDTC 0.125 μM and 12.5 μM, both levels
  suppression of LC-induced TNF-α production: completely suppressed

## PACAP[1-38]-NH2 (HSDGIFTDSYSRYRKQMAVKKYLAAVLGKRYKQRVKNK-NH2) [PACAP38]
[2]
  suppression of LC-induced NFκB p50 subunit activation: significantly suppressed NFκB p50 activation; also recorded: suppressed by both dexamethasone and PACAP38
[3]; 3 days
  concentration of maximal suppression of tumor cell growth: 10^−7 M
  lowest concentration at which tumor cell growth tended to be suppressed: 10^−13 M
[3]; 3 days, media with non-inactivated serum
  suppression of myeloma cell growth: suppressed growth of myeloma cells in cultures with approximately the same efficacy; also recorded: suppressed cell growth significantly; also recorded: dose-dependent suppression of myeloma cell growth at concentrations significantly lower than dexamethasone
[3]; media containing non-inactivated serum
  growth suppressed at levels as low as: 10^−11 M
[1]; 50 μM LC
  concentration achieving maximal suppression of TNF-α production: 10^−9 M and 10^−7 M
  concentration giving comparable magnitude of TNF-α suppression (dexamethasone vs PACAP38): 10^−13 M
  concentrations showing comparable activity in suppressing LC-induced TNF-α production (pair used in FIGS. 5-7): 10^−9 M
[1]; PACAP38 10^−9 M
  suppression of LC-induced TNF-α production at a single concentration: dramatic suppression
[1]; varying doses, 50 μM LC, 72 hours
  suppression of LC-induced TNF-α production: suppressed by both dexamethasone and PACAP38 in a dose-dependent manner
[4]
  magnitude of IL6 suppression compared with dexamethasone and SB202190: significantly more effective at suppressing IL-6 production than dexamethasone
[4]; varying doses, 50 μM LC
  suppression of LC-stimulated IL6 production: significant suppression; also recorded: suppressed by both dexamethasone and PACAP38 in a dose-dependent manner
[5]; PACAP38 10 nM, LC 50 μM, 3 days
  effect on LC-induced cell damage (FIG. 2C): dramatically attenuated
[5]; PACAP38 10^−9 M, LC 50 μM, 3 days
  effect on LC-induced morphological changes (cell shrinkage, necrosis, loss of cell-cell adhesion) and survival: prevented the LC-induced changes; also recorded: dramatic preservation of renal tubule cell survival and morphology
[5]; PACAP38 alone, 10^−9 M, no LC
  cell morphology with compound alone: did not cause any alteration of cell morphology; also recorded: did not alter the human renal tubule cell morphology
[6]
  suppression of LC-induced ERK1/2 activation: Neither dexamethasone nor PACAP38 suppressed ERK1/2 MAPK activation; also recorded: the difference was not statistically significant; also recorded: neither dexamethasone nor PACAP38 suppressed light chain-induced ERK1/2 activation significantly
[7]; 10 nM PACAP38 vs 10 μM SB202190
  reduction of p38 MAPK activation compared with SB202190 and dexamethasone: comparable to reduction produced by 10 μM SB202190; also recorded: comparable to that of the specific p38 MAPK inhibitor itself; also recorded: significantly more effective at comparable doses
[7]; varying doses, 50 μM LC, 3 days
  reduction of LC-induced p38 MAPK activation: suppressed activation of p38 MAPK; also recorded: reduced significantly, and in a dose-dependent manner; also recorded: suppressed p38 MAPK activation in a dose-dependent manner

## C[C@@H]1C[C@H]2[C@@H]3CCC4=CC(=O)C=C[C@]4(C)[C@@]3(F)[C@@H](O)C[C@]2(C)[C@@]1(O)C(=O)CO [dexamethasone, reference compound]
[1]; 50 μM LC
  concentration achieving maximal suppression of TNF-α production: 10^−5 M
  concentration giving comparable magnitude of TNF-α suppression (dexamethasone vs PACAP38): 10^−9 M
  concentrations showing comparable activity in suppressing LC-induced TNF-α production (pair used in FIGS. 5-7): 10^−7 M

## N#CC(=C(/N)Sc1ccccc1N)/C(C#N)=C(\N)Sc1ccccc1N [U0126, reference compound]
[1]; U0126 high dose
  suppression of LC-induced TNF-α production: completely suppressed

## vasoactive intestinal peptide [VIP]
[8]
  binding to PAC1-R: does not bind

## PACAP: pituitary adenylate cyclase activating polypeptide; exists as PACAP38 and PACAP27; in Example 8 stands for PACAP38
[4]
  magnitude of IL6 suppression compared with dexamethasone and SB202190: greater than that observed with either 10^−9 M dexamethasone or 10 μM SB202190

## Oc1ccc(-c2nc(-c3ccncc3)c(-c3ccc(F)cc3)[nH]2)cc1 [SB202190, reference compound]
[7]; SB202190 10 μM
  reduction of p38 MAPK activation: reduction produced by 10 μM SB202190
